Experimental data as given in patent US11090292B2, “Compositions and methods of use of an inappetance-controlling compound” (Aratana Therapeutics, Inc., priority 2012, dated 2021).
Like-named read-outs stand apart in the source and are kept apart here.

Experiment: Example 12 cat probe formulation study and pharmacokinetic analysis
Assay type: in vivo, cats
Settings: for peak in serum concentration of capromorelin / time post administration of peak serum concentration: Day 0
Experimental: Similar to some of the other pharmacokinetic analyses conducted in dogs and cats, an additional pharmacokinetic study was conducted in cats to assess capromorelin formulations that allow sufficient drug to circulate to produce appetite stimulation and to define the capromorelin pharmacokinetic profile in cats. Briefly, twelve cats were randomized into Group 1 (six cats) and Group 2 (six cats). Group 1 received an intravenous formulation that included 0.75 mg/kg of capromorelin dissolved in sterile water and Group 2 received a previously tested formulation via oral gavage. Food consumption was determined daily for all cats. Specifically, animals were offered feed at approximately 11:00 AM, with the removal of feed at approximately 3:00 PM. Upon removal of feed, the amount consumed was calculated. […] Initially, the cats were given a seven day acclimation period to adjust to the experimental conditions and feed provided. After the acclimation period, on Day 0, all animals in Group 1 received an intravenous injection of the composition containing a dose of 0.75 mg/kg of capromorelin. On Day 0, the animals in Group 2 received an oral administration of the formulation via gavage at a dose of 3 mg/kg of capromorelin. On Day 0, serum samples were taken from the Group 1 animals at time 0 (pre-administration) and 5 minutes, 10 minutes, 30 minutes, 1 h, 2 h, 4 h, 6 h, 8 h, and 12 h post administration and serum samples were also taken from the Group 2 animals at time 0 (per-administration) and 15 minutes, 30 minutes, 45 minutes, 1 h, 2 h, 4 h, 6 h, 8 h, and 12 h post administration.

[1] = Group 1, intravenous 0.75 mg/kg

Compound: CN1N=C2CCN(C(=O)[C@@H](COCc3ccccc3)NC(=O)C(C)(C)N)C[C@@]2(Cc2ccccc2)C1=O.O=C(O)C(O)C(O)C(=O)O [capromorelin]
- peak in serum concentration of capromorelin [1]: around 625 ng/mL
- time post administration of peak serum concentration [1]: around 5 minutes
- peak in serum concentration of capromorelin (Group 2, oral gavage 3 mg/kg): around 150 ng/mL
- time post administration of peak serum concentration (Group 2, oral gavage 3 mg/kg): around 2 hours
- clearance (cat, serum, Group 1, intravenous 0.75 mg/kg, read-out: clearance of capromorelin): ~30 mL/min/kg
- half-life (cat, serum, Group 1, intravenous 0.75 mg/kg, read-out: terminal half-life of capromorelin (converted)): ~54 min
- Cmax (cat, serum, Group 2, oral gavage 3 mg/kg): 149 ng/mL
- half-life (cat, serum, Group 2, oral gavage 3 mg/kg, read-out: mean-terminal half-life (converted)): 62.4 min
